Assay results from patent US12583849B2, “KCNT1 inhibitors and methods of use” (Praxis Precision Medicines, Inc., priority 2020, dated 2026).

biological target: T1, KCNT1 (KNa1.1, Slack) (Homo sapiens, UniProt Q5JUK3); assay: KCNT1-WT-Basal Patch Clamp Assay; type: cell-based; conditions: tetracycline inducible cell line (HEK-TREX); SyncroPatch 384PE automated patch clamp, perforated patch mode, room temperature, step from -80 mV to 0 mV
T1 construct: expressed in transfected cells; host or cells: HEK-TREX (tetracycline-inducible cell line)
T1 sequence (Q5JUK3 1-1230): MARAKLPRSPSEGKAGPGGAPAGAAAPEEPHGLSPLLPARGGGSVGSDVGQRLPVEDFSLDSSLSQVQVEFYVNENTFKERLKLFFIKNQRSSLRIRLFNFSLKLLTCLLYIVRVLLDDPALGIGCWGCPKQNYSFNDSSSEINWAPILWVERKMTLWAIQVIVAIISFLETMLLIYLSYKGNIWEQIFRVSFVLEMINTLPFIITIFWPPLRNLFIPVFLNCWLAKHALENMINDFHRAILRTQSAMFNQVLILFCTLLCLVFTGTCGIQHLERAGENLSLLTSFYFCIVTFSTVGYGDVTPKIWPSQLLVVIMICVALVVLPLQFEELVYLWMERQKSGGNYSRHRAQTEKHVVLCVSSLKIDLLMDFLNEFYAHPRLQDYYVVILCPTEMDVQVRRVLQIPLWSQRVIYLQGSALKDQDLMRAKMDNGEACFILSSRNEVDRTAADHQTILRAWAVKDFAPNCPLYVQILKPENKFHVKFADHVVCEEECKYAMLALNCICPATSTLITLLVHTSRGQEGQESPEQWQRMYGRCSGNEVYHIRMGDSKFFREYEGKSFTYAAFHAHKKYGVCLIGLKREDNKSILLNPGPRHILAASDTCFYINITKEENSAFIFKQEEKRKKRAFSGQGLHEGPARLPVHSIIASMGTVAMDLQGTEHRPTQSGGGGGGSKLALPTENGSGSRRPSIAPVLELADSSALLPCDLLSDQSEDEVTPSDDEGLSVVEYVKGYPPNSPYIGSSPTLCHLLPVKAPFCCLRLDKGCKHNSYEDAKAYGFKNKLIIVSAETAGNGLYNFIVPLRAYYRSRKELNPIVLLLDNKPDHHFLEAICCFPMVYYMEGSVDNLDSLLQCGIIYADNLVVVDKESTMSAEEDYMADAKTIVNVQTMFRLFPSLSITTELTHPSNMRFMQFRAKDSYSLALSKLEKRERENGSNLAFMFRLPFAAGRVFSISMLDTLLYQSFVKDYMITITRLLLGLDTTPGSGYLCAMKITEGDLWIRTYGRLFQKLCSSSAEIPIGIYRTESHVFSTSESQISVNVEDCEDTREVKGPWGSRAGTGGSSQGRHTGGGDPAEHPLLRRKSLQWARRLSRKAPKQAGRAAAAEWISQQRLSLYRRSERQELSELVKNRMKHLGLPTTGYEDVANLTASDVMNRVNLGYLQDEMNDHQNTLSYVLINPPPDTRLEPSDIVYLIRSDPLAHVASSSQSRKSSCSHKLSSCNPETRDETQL
Description: KCNT1-WT-Basal—Patch Clamp Assay
Inhibition of KCNT1 (KNa1.1, Slack) was evaluated using a tetracycline inducible cell line (HEK-TREX). Currents were recorded using the SyncroPatch 384PE automated, patch clamp system. Pulse generation and data collection were performed with PatchController384 V1.3.0 and DataController384 V1.2.1 (Nanion Technologies). The access resistance and apparent membrane capacitance were estimated using built-in protocols. Current were recorded in perforated patch mode (10 μM escin) from a population of cells. The cells were lifted, triturated, and resuspended at 800,000 cells/ml. The cells were allowed to recover in the cell hotel prior to experimentation. Currents were recorded at room temperature. The external solution contained the following (in mM): NaCl 105, NMDG 40, KCl 4, MgCl2 1, CaCl2 5 and HEPES 10 (pH=7.4, Osmolarity ˜300 mOsm). The extracellular solution was used as the wash, reference and compound delivery solution. The internal solution contained the following (in mM): NaCl 70, KF 70, KCl 10, EGTA 5, HEPES 5 and Escin 0.01 (pH=7.2, Osmolarity ˜295 mOsm). Escin is made at a 5 mM stock in water, aliquoted, and stored at −20° C. The compound plate was created at 2× concentrated in the extracellular solution. The compound was diluted to 1:2 when added to the recording well. The amount of DMSO in the extracellular solution was held constant at the level used for the highest tested concentration. A holding potential of −80 mV with a 100 ms step to 0 mV was used. Mean current was measured during the step to 0 mV. […] The average mean current from 3 sweeps was calculated and the % inhibition of each compound was calculated. The % Inhibition as a function of the compound concentration was fit with a Hill equation to derive IC50, slope, min and max parameters. If KCNT1 inhibition was less than 50% at the highest tested concentration or if an IC50 could not be calculated, then a percent inhibition was reported in place of the IC50.
In this table, “A” indicates IC50 of less than or equal to 1 μM; “B” indicates inhibition of between 1 μM to 20 μM; and “C” indicates inhibition of greater than or equal to 20 μM.

SMILES	IC50 [µM]
C[C@H](NC(=O)c1cccc(C(=O)N(C)C)c1)c1nc(-c2ccnc(C3CC3)c2)no1 [Compound I-90, (S)—N1-(1-(3-(2-cyclopropylpyridin-4-yl)-1,2,4-oxadiazol-5-yl)ethyl)-N3,N3-dimethylisophthalamide]	1 to 20
C[C@H](NC(=O)CN1CCCCC1)c1nc(-c2ccnc(C(F)(F)F)c2)no1 [Compound I-35, (S)-2-(piperidin-1-yl)-N-(1-(3-(2-(trifluoromethyl)pyridin-4-yl)-1,2,4-oxadiazol-5-yl)ethyl)acetamide]	≥ 20
CC(NC(=O)c1ccc2c(c1)OCCO2)c1nc(-c2cccc(F)c2)no1 (stereo not shown) [Compound I-51, N-[1-[3-(3-fluorophenyl)-1,2,4-oxadiazol-5-yl]ethyl]-2,3-dihydro-1,4-benzodioxine-6-carboxamide]	1 to 20
CC(NC(=O)c1cn2ccccc2n1)c1nc(-c2cccc(F)c2)no1 (stereo not shown) [Compound I-50, N-[1-[3-(3-fluorophenyl)-1,2,4-oxadiazol-5-yl]ethyl]imidazo[1,2-a]pyridine-2-carboxamide]	≥ 20
C[C@H](NC(=O)C1CCC(O)CC1)c1nc(-c2ccnc(C(F)(F)F)c2)no1 (single isomer, unassigned) [Compound I-77]	≥ 20
C[C@H](NC(=O)N1CCCc2ccccc21)c1nc(-c2ccnc(C3CC3)c2)no1 [II-8]	≤ 1
C[C@H](NC(=O)Cc1ccccc1)c1nc(-c2ccnc(C3CC3)c2)no1 [Compound I-42, (S)—N-(1-(3-(2-cyclopropylpyridin-4-yl)-1,2,4-oxadiazol-5-yl)ethyl)-2-phenylacetamide]	≤ 1
C[C@H](NC(=O)c1cccc(OC(F)(F)F)c1)c1nc(-c2ccnc(C3CC3)c2)no1 [Compound I-103, (S)—N-(1-(3-(2-cyclopropylpyridin-4-yl)-1,2,4-oxadiazol-5-yl)ethyl)-3-(trifluoromethoxy)benzamide]	≤ 1
C[C@H](NC(=O)c1csc(C(F)(F)F)n1)c1nc(-c2ccnc(C(F)(F)F)c2)no1 [Compound I-10, (S)-2-(trifluoromethyl)-N-(1-(3-(2-(trifluoromethyl)pyridin-4-yl)-1,2,4-oxadiazol-5-yl)ethyl)thiazole-4-carboxamide]	≤ 1
CC[C@H](NC(=O)C1CCCCC1)c1nc(-c2ccnc(C(F)(F)F)c2)no1 [Compound I-20, (S)—N-(1-(3-(2-(trifluoromethyl)pyridin-4-yl)-1,2,4-oxadiazol-5-yl)propyl)cyclohexanecarboxamide]	≤ 1
Cc1c(C(=O)NC(C)c2nc(-c3cccc(F)c3)no2)nc2ccccn12 (stereo not shown) [Compound I-49, N-[1-[3-(3-fluorophenyl)-1,2,4-oxadiazol-5-yl]ethyl]-3-methyl-imidazo[1,2-a]pyridine-2-carboxamide]	≥ 20
C[C@H](NC(=O)c1cccc(C(F)(F)F)c1)c1nc(-c2ccnc(C3CC3)c2)no1 [Compound I-95, (S)—N-(1-(3-(2-cyclopropylpyridin-4-yl)-1,2,4-oxadiazol-5-yl)ethyl)-3-(trifluoromethyl)benzamide]	≤ 1
C[C@H](NC(=O)c1ccnc(C(F)(F)F)c1)c1nc(-c2ccnc(C(F)(F)F)c2)no1 [Compound I-14, (S)-2-(trifluoromethyl)-N-(1-(3-(2-(trifluoromethyl)pyridin-4-yl)-1,2,4-oxadiazol-5-yl)ethyl)isonicotinamide]	≤ 1
C[C@H](NC(=O)C1CCN(C)CC1)c1nc(-c2ccnc(C(F)(F)F)c2)no1 [Compound I-65, (S)-1-methyl-N-(1-(3-(2-(trifluoromethyl)pyridin-4-yl)-1,2,4-oxadiazol-5-yl)ethyl)piperidine-4-carboxamide]	≥ 20
CC1CC(C(=O)N[C@@H](C)c2nc(-c3ccnc(C(F)(F)F)c3)no2)C1 (mixture of isomers) [Compound I-74, 3-methyl-N-[(1S)-1-[3-[2-(trifluoromethyl)-4-pyridyl]-1,2,4-oxadiazol-5-yl]ethyl]cyclobutanecarboxamide]	≤ 1
C[C@H](NC(=O)C1CCCC12CC2)c1nc(-c2ccnc(C(F)(F)F)c2)no1 (stereo partly drawn) [Compound I-82, N-[(1S)-1-[3-[2-(trifluoromethyl)-4-pyridyl]-1,2,4-oxadiazol-5-yl]ethyl]spiro[2.4]heptane-7-carboxamide]	≤ 1
C[C@H](NC(=O)C1(C)CC1)c1nc(-c2ccnc(C(F)(F)F)c2)no1 [Compound I-33, (S)-1-methyl-N-(1-(3-(2-(trifluoromethyl)pyridin-4-yl)-1,2,4-oxadiazol-5-yl)ethyl)cyclopropane-1-carboxamide]	1 to 20
CCS(=O)(=O)c1ccc(C(=O)N[C@@H](C)c2nc(-c3ccnc(C4CC4)c3)no2)s1 [Compound I-93, (S)—N-(1-(3-(2-cyclopropylpyridin-4-yl)-1,2,4-oxadiazol-5-yl)ethyl)-5-(ethylsulfonyl)thiophene-2-carboxamide]	≤ 1
C[C@H](NC(=O)NC(C)(C)C)c1nc(-c2ccnc(C3CC3)c2)no1 [II-7]	≤ 1

Results, then the compound that gave them:

IC50 [µM]	SMILES
≤ 1	Cc1nc(C(F)(F)F)ccc1C(=O)N[C@@H](C)c1nc(-c2ccnc(C3CC3)c2)no1 [Compound I-53, (S)—N-(1-(3-(2-cyclopropylpyridin-4-yl)-1,2,4-oxadiazol-5-yl)ethyl)-2-methyl-6-(trifluoromethyl)nicotinamide]
≤ 1	CC(C)Oc1cc(-c2noc([C@H](C)NC(=O)N3CCCc4ccccc43)n2)ccn1 [II-3]
≤ 1	C[C@H](NC(=O)c1cccc(F)c1)c1nc(-c2ccnc(C3CC3)c2)no1 [Compound I-89, (S)—N-(1-(3-(2-cyclopropylpyridin-4-yl)-1,2,4-oxadiazol-5-yl)ethyl)-3-fluorobenzamide]
≤ 1	C[C@H](NC(=O)c1cccc(Cl)c1)c1nc(-c2ccnc(C3CC3)c2)no1 [Compound I-63, 3-chloro-N-[(1S)-1-[3-(2-cyclopropyl-4-pyridyl)-1,2,4-oxadiazol-5-yl]ethyl]benzamide]
≤ 1	CC(C)Oc1cc(-c2noc([C@H](C)NC(=O)N3CCOc4ccccc43)n2)ccn1 [II-4]
≤ 1	C[C@H](NC(=O)C1CCCCC1)c1nc(-c2ccnc(C(F)(F)F)c2)no1 [Compound I-9]
≤ 1	C[C@H](NC(=O)c1cc(F)cc(F)c1)c1nc(-c2ccnc(C3CC3)c2)no1 [Compound I-102, (S)—N-(1-(3-(2-cyclopropylpyridin-4-yl)-1,2,4-oxadiazol-5-yl)ethyl)-3,5-difluorobenzamide]
≤ 1	COc1cccc(C(=O)N[C@@H](C)c2nc(-c3ccnc(C4CC4)c3)no2)c1 [Compound I-79]
≤ 1	C[C@H](NC(=O)C1CC2(CCC2)C1)c1nc(-c2ccnc(C3CC3)c2)no1 [Compound I-98, (S)—N-(1-(3-(2-cyclopropylpyridin-4-yl)-1,2,4-oxadiazol-5-yl)ethyl) spiro[3.3]heptane-2-carboxamide]
